Experimental data taken from PubChem BioAssay (NCI).
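Interpolation was linear, between the two tested concentrations surrounding the appropriate level; five concentrations were tested over 48 hours in 96-well plates. TGI denotes the concentration required for complete inhibition of growth.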

Key:
Experiment in all cases: NCI anticancer screen, dose series, 48 h
[1] = tested on: ACHN renal
[2] = tested on: SNB-19 CNS
[3] = tested on: DMS 114 small cell lung
[4] = tested on: TK-10 renal
[5] = tested on: HL-60(TB) leukemia
[6] = tested on: HCT-116 colon
[7] = tested on: SN12C renal
[8] = tested on: HT29 colon
[9] = tested on: A549 NSCLC
[10] = tested on: EKVX NSCLC
[11] = tested on: CAKI-1 renal
[12] = tested on: HOP-18 NSCLC
[13] = tested on: NCI-H23 lung
[14] = tested on: M14 melanoma
[15] = tested on: SF-268 CNS
[16] = tested on: IGROV1 ovarian
[17] = tested on: LXFL 529 NSCLC
[18] = tested on: UACC-62 melanoma
[19] = tested on: OVCAR-4 ovarian
[20] = tested on: HCT-15 colon
[21] = tested on: A498 renal
[22] = tested on: NCI-H226 lung
[23] = tested on: NCI-H460 lung
[24] = tested on: K-562 leukemia
[25] = tested on: UACC-257 melanoma
[26] = tested on: HCC-2998 colon
[27] = tested on: UO-31 renal
[28] = tested on: RXF-631 renal
[29] = tested on: MALME-3M melanoma
[30] = tested on: SW-620 colon
[31] = tested on: SNB-78 CNS
[32] = tested on: SK-MEL-5 melanoma
[33] = tested on: OVCAR-3 ovarian
[34] = tested on: MOLT-4 leukemia
[35] = tested on: SK-OV-3 ovarian
[36] = tested on: COLO 205 colon
[37] = tested on: DLD-1 colon
[38] = tested on: SF-539 CNS
[39] = tested on: U251 CNS
[40] = tested on: XF 498 CNS
[41] = tested on: HOP-92 NSCLC
[42] = tested on: LOX IMVI melanoma
[43] = tested on: KM20L2 colon
[44] = tested on: SK-MEL-2 melanoma
[45] = tested on: NCI-H522 lung
[46] = tested on: SF-295 CNS
[47] = tested on: KM12 colon
[48] = tested on: CCRF-CEM leukemia
[49] = tested on: RPMI-8226 leukemia
[50] = tested on: DMS 273 small cell lung
[51] = tested on: OVCAR-8 ovarian
[52] = tested on: 786-0 renal
[53] = tested on: OVCAR-5 ovarian
[54] = tested on: M19-MEL melanoma
[55] = tested on: HOP-62 NSCLC
[56] = tested on: SNB-75 CNS
[57] = tested on: SK-MEL-28 melanoma
[58] = tested on: SR leukemia
[59] = tested on: RXF 393 renal
[60] = tested on: MDA-MB-231 breast
[61] = tested on: HS 578T breast
[62] = tested on: MDA-N
[63] = tested on: DU-145 prostate
[64] = tested on: T-47D breast
[65] = tested on: BT-549 breast
[66] = tested on: PC-3 prostate

O=C1CCC(=O)C(C(=O)CCC(=O)Nc2ccc(Cl)cc2)C1 (stereo not given)
TGI [1]: > 100 µM
TGI [2]: > 100 µM
TGI [3]: > 100 µM
TGI [4]: > 100 µM
TGI [5]: > 100 µM
TGI [6]: > 100 µM
TGI [7]: > 100 µM
TGI [8]: > 100 µM
TGI [9]: > 100 µM
TGI [10]: > 100 µM
TGI [11]: > 100 µM
TGI [12]: > 100 µM
TGI [13]: > 100 µM
TGI [14]: > 100 µM
TGI [15]: > 100 µM
TGI [16]: > 100 µM
TGI [17]: > 100 µM
TGI [18]: > 100 µM
TGI [19]: > 100 µM
TGI [20]: > 100 µM
TGI [21]: > 100 µM
TGI [22]: > 100 µM
TGI [23]: > 100 µM
TGI [24]: > 100 µM
TGI [25]: > 100 µM
TGI [26]: > 100 µM
TGI [27]: > 100 µM
TGI [28]: > 100 µM
TGI [29]: > 100 µM
TGI [30]: > 100 µM
TGI [31]: > 100 µM
TGI [32]: > 100 µM
TGI [33]: > 100 µM
TGI [34]: > 100 µM
TGI [35]: > 100 µM
TGI [36]: > 100 µM
TGI [37]: > 100 µM
TGI [38]: > 100 µM
TGI [39]: > 100 µM
TGI [40]: > 100 µM
TGI [41]: > 100 µM
TGI [42]: > 100 µM
TGI [43]: > 100 µM
TGI [44]: > 100 µM
TGI [45]: > 100 µM
TGI [46]: > 100 µM
TGI [47]: > 100 µM
TGI [48]: > 100 µM
TGI [49]: > 100 µM
TGI [50]: > 100 µM
TGI [51]: > 100 µM
TGI [52]: > 100 µM
TGI [53]: > 100 µM

COC(=O)C1=C(c2cc(OC)c(OC)c(OC)c2)OC(c2cc(OC)c(OC)c(OC)c2)C1 (stereo not given)
TGI [1]: 65.4 µM
TGI [2]: > 100 µM
TGI [54]: 78.2 µM
TGI [3]: 82.9 µM
TGI [4]: 63.9 µM
TGI [6]: 32.9 µM
TGI [7]: 55.1 µM
TGI [8]: 58.5 µM
TGI [9]: > 100 µM
TGI [11]: 60.9 µM
TGI [12]: 50.2 µM
TGI [13]: 48.9 µM
TGI [55]: > 100 µM
TGI [14]: 50 µM
TGI [15]: > 100 µM
TGI [16]: 46 µM
TGI [56]: 78.1 µM
TGI [17]: 54.9 µM
TGI [18]: 27.5 µM
TGI [19]: 70.6 µM
TGI [20]: > 100 µM
TGI [21]: 51.4 µM
TGI [22]: 75.4 µM
TGI [23]: > 100 µM
TGI [24]: > 100 µM
TGI [57]: > 100 µM
TGI [25]: 51.5 µM
TGI [26]: 41.4 µM
TGI [27]: 40 µM
TGI [58]: 60 µM
TGI [29]: 72.3 µM
TGI [30]: > 100 µM
TGI [31]: > 100 µM
TGI [32]: 32.6 µM
TGI [33]: 48.6 µM
TGI [34]: 68.5 µM
TGI [35]: 71 µM
TGI [36]: 33 µM
TGI [37]: > 100 µM
TGI [38]: 75.1 µM
TGI [39]: 44.2 µM
TGI [40]: 72 µM
TGI [41]: 36.5 µM
TGI [42]: 36.9 µM
TGI [43]: 73.6 µM
TGI [46]: 51.1 µM
TGI [47]: 32.4 µM
TGI [59]: 75.2 µM
TGI [48]: > 100 µM
TGI [49]: 96.6 µM
TGI [50]: > 100 µM
TGI [51]: > 100 µM
TGI [52]: 70.8 µM
TGI [53]: > 100 µM

CCN(CC)C(=O)c1ccc(C)c(N=NN(C)C)c1
TGI [1]: > 100 µM
TGI [2]: > 100 µM
TGI [54]: > 100 µM
TGI [4]: > 100 µM
TGI [6]: > 100 µM
TGI [7]: > 100 µM
TGI [8]: > 100 µM
TGI [9]: > 100 µM
TGI [10]: > 100 µM
TGI [11]: > 100 µM
TGI [13]: > 100 µM
TGI [55]: > 100 µM
TGI [14]: > 100 µM
TGI [15]: > 100 µM
TGI [16]: > 100 µM
TGI [17]: > 100 µM
TGI [18]: > 100 µM
TGI [19]: > 100 µM
TGI [20]: > 100 µM
TGI [23]: > 100 µM
TGI [57]: > 100 µM
TGI [25]: > 100 µM
TGI [26]: > 100 µM
TGI [27]: > 100 µM
TGI [30]: > 100 µM
TGI [32]: > 100 µM
TGI [33]: > 100 µM
TGI [37]: > 100 µM
TGI [38]: > 100 µM
TGI [39]: > 100 µM
TGI [41]: > 100 µM
TGI [42]: > 100 µM
TGI [44]: > 100 µM
TGI [45]: > 100 µM
TGI [46]: > 100 µM
TGI [47]: > 100 µM
TGI [50]: > 100 µM
TGI [51]: > 100 µM
TGI [52]: > 100 µM

BrCC[N+]12CCCN1CCC2
TGI [1]: 14.3 µM
TGI [2]: > 77 µM
TGI [54]: 34.1 µM
TGI [4]: 27.9 µM
TGI [5]: 12.9 µM
TGI [6]: 22.8 µM
TGI [7]: 29.3 µM
TGI [8]: 38.2 µM
TGI [9]: > 81.8 µM
TGI [10]: 38 µM
TGI [11]: 2.44 µM
TGI [12]: 21.7 µM
TGI [13]: 36.6 µM
TGI [55]: > 70.5 µM
TGI [14]: 24.7 µM
TGI [15]: 58.9 µM
TGI [16]: 51.1 µM
TGI [56]: 32 µM
TGI [17]: 8.59 µM
TGI [18]: 20.5 µM
TGI [19]: 10.7 µM
TGI [20]: 28.2 µM
TGI [21]: > 66.2 µM
TGI [22]: 60.8 µM
TGI [23]: 48.9 µM
TGI [24]: 8.46 µM
TGI [57]: 26.5 µM
TGI [25]: 37.2 µM
TGI [26]: 54.3 µM
TGI [60]: 34 µM
TGI [27]: 39.2 µM
TGI [28]: 46.4 µM
TGI [58]: 6.8 µM
TGI [29]: 5.2 µM
TGI [30]: 7.39 µM
TGI [31]: 37.5 µM
TGI [32]: 34.3 µM
TGI [33]: 30.9 µM
TGI [34]: 12.9 µM
TGI [35]: > 93.3 µM
TGI [36]: 10.5 µM
TGI [37]: 14.1 µM
TGI [38]: 32.9 µM
TGI [39]: 32.7 µM
TGI [41]: 13.7 µM
TGI [42]: 27 µM
TGI [43]: 42.2 µM
TGI [61]: 26.9 µM
TGI [44]: 48.4 µM
TGI [45]: 1.71 µM
TGI [46]: > 100 µM
TGI [47]: > 94.6 µM
TGI [59]: 29.2 µM
TGI [48]: 4.87 µM
TGI [49]: 8.38 µM
TGI [50]: 37.1 µM
TGI [51]: 39.3 µM
TGI [62]: 30.2 µM
TGI [52]: 22.3 µM
TGI [63]: > 100 µM
TGI [64]: 35.2 µM
TGI [53]: 40 µM
TGI [65]: 31.3 µM
TGI [66]: 31.2 µM
